Test results as given in BindingDB's records for doi:10.1124/mol.64.4.841 (Pohang University of Science and Technology, 2003).
Square brackets hold non-standard residues; d marks the D form. Peptide text beside a SMILES is read from it.

target: T1, fMet-Leu-Phe receptor (Homo sapiens, UniProt P21462)
T1 sequence (P21462 whole entry): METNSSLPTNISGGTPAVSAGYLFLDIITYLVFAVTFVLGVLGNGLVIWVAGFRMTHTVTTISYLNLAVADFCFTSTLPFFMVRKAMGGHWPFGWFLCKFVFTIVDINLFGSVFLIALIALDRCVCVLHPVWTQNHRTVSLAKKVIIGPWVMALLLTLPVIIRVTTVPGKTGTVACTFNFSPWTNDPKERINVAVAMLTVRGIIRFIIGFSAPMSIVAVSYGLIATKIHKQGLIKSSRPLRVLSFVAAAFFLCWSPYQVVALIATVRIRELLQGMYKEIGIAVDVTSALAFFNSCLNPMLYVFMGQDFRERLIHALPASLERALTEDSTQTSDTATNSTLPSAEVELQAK

Row | Ki | SMILES
1 | 1300 nM | CSCC[C@H](NC(=O)[C@H](CC(=O)O)NC(=O)[C@H](CCCCN)NC(=O)[C@@H](N)Cc1c[nH]c2ccccc12)C(=O)N[C@H](C(=O)N[C@H](CCSC)C(N)=O)C(C)C [WKDMVm-NH2] (H-WKDMV[dM]-NH2)
2 | 18 nM | CSCC[C@H](NC(=O)[C@H](Cc1ccccc1)NC(=O)[C@H](CCCCN)NC(=O)[C@@H](N)Cc1c[nH]c2ccccc12)C(=O)N[C@H](C(=O)N[C@H](CCSC)C(N)=O)C(C)C [WKFMVm-NH2] (H-WKFMV[dM]-NH2)
3 | 282 nM | CSCC[C@H](NC(=O)[C@H](Cc1c[nH]cn1)NC(=O)[C@H](CCCCN)NC(=O)[C@@H](N)Cc1c[nH]c2ccccc12)C(=O)N[C@H](C(=O)N[C@H](CCSC)C(N)=O)C(C)C [WKHMVm-NH2] (H-WKHMV[dM]-NH2)
4 | 19 nM | CSCC[C@H](NC(=O)[C@H](Cc1c[nH]c2ccccc12)NC(=O)[C@H](CCCCN)NC(=O)[C@@H](N)Cc1c[nH]c2ccccc12)C(=O)N[C@H](C(=O)N[C@H](CCSC)C(N)=O)C(C)C [WKWMVm-NH2] (H-WKWMV[dM]-NH2)

The next lines start with the compound.

Row | SMILES | Ki
5 | CSCC[C@H](NC(=O)[C@H](Cc1ccc(O)cc1)NC(=O)[C@H](CC(=O)O)NC(=O)[C@@H](N)Cc1c[nH]c2ccccc12)C(=O)N[C@H](C(=O)N[C@H](CCSC)C(N)=O)C(C)C [WDYMVm-NH2] (H-WDYMV[dM]-NH2) | 99 nM
6 | CSCC[C@H](NC(=O)[C@H](Cc1ccc(O)cc1)NC(=O)[C@H](CCC(=O)O)NC(=O)[C@@H](N)Cc1c[nH]c2ccccc12)C(=O)N[C@H](C(=O)N[C@H](CCSC)C(N)=O)C(C)C [WEYMVm-NH2] (H-WEYMV[dM]-NH2) | 323 nM
7 | CSCC[C@H](NC(=O)[C@H](Cc1ccc(O)cc1)NC(=O)[C@H](Cc1c[nH]cn1)NC(=O)[C@@H](N)Cc1c[nH]c2ccccc12)C(=O)N[C@H](C(=O)N[C@H](CCSC)C(N)=O)C(C)C [WHYMVm-NH2] (H-WHYMV[dM]-NH2) | 32 nM
8 | CSCC[C@H](NC(=O)[C@H](CCC(=O)O)NC(=O)[C@H](CCCCN)NC(=O)[C@@H](N)Cc1c[nH]c2ccccc12)C(=O)N[C@H](C(=O)N[C@H](CCSC)C(N)=O)C(C)C [WKEMVm-NH2] (H-WKEMV[dM]-NH2) | 1300 nM
9 | CSCC[C@H](NC(=O)[C@H](Cc1ccc(O)cc1)NC(=O)[C@H](CCCCN)NC(=O)[C@@H](N)Cc1c[nH]c2ccccc12)C(=O)N[C@@H](Cc1ccccc1)C(=O)N[C@H](CCSC)C(N)=O [WKYM(F/W)m-NH2] | 57 nM
10 | CSCC[C@H](NC(=O)[C@H](Cc1ccc(O)cc1)NC(=O)[C@H](CCCCN)NC(=O)[C@@H](N)Cc1c[nH]c2ccccc12)C(=O)N[C@@H](Cc1ccc(O)cc1)C(=O)N[C@H](CCSC)C(N)=O [WKYMYm-NH2] (H-WKYMY[dM]-NH2) | 671 nM
11 | CSCC[C@H](NC(=O)[C@H](Cc1ccc(O)cc1)NC(=O)[C@H](CCCNC(=N)N)NC(=O)[C@@H](N)Cc1c[nH]c2ccccc12)C(=O)N[C@H](C(=O)N[C@H](CCSC)C(N)=O)C(C)C [WRYMVm-NH2] (H-WRYMV[dM]-NH2) | 55 nM
12 | CSCC[C@H](NC(=O)[C@@H](N)Cc1ccc(O)cc1)C(=O)N[C@H](C(=O)N[C@H](CCSC)C(N)=O)C(C)C [YMVm-NH2] (H-YMV[dM]-NH2) | 567 nM
